A word on the Kd: it is a measure of binding affinity in units of concentration.

The source of these data is publication PMC5880808, “A lever-like transduction pathway for long-distance chemical- and mechano-gating of the mechanosensitive Piezo1 channel” (Nature Communications, 2018).

SMILES strings stand for the structures.

In one test the target is T1, mPiezo1 (Mus musculus, UniProt E2JF22).
T1 construct: The full-length mPiezo1 has 2547 amino acids in each monomer; expressed in transfected cells; host or cells: HEK293T
The test can be described thus: SPR binding to immobilized purified protein. Particulars: immobilized mPiezo1 in C12E10, 25 °C. The procedure: We next employed the surface plasmon resonance (SPR) binding assay to examine whether Jedi1/2 bind directly to purified mPiezo1 proteins solubilized in the C12E10 detergent (Supplementary Fig. 2a, b). Based on an amine-coupling method, Piezo1 proteins (50 μg/ml) were optimally immobilized onto a research-grade CM5 sensor chip by using a buffer containing 10 mM sodium acetate (pH 5.0), 150 mM NaCl, 0.026% C12E10, and 0.05% Surfactant P20. […] Given the hydrophilic nature of Jedi1/2, it is possible that the amine-based attachment of the purified Piezo1 protein to the SPR sensor chip might affect the binding. […] Nevertheless, given their low binding affinity, we could not totally exclude the possibility that Jedi1/2 might indirectly activate Piezo1 in the cell.
(§1) Real-time binding and analysis by SPR were conducted on BIAcore T200 instrument (GE Healthcare) at 25 °C. Proteins were immobilized on a research-grade CM5 sensor chip by amine-coupling methods. During the pH scouting process, 10 mM sodium acetate at various pH including 4.0, 4.5, 5.0, and 5.5 and protein concentrations varying between 10 and 100 μg/ml were screened before immobilization. Except pH 4.5 for mPiezo1-(1–2190), pH 5.0 was used for all other proteins, including mPiezo1, CED, Δ15-16, and Δ19-20. All proteins were diluted to 50 μg/ml in buffer containing 10 mM sodium acetate at the abovementioned pH, 0.026% C12E10 detergent, and 150 mM NaCl, except that the soluble CED proteins, which were diluted in 150 mM NaCl without detergent. During the immobilization process, the CM5 sensor was activated with NHS first, allowing the amine-containing proteins to be coupled to the sensor through NHS. […]
(§2) For data collection, compounds at various concentrations were diluted in a running buffer containing 1× PBS, 0.026% detergent C12E10, and 0.05% Surfactant P20 (GE Healthcare Bio-Sciences AB) and injected over the flow cells with at a 30 μl/min flow rate. […] Data were analyzed with the BIAcore T200 evaluation software by fitting to a 1:1 affinity-binding model.
For orientation: SPR reads the build-up and loss of mass on a sensor chip optically.

The next test deals with T2, mPiezo1(1–2190) (Mus musculus, UniProt E2JF22).
T2 construct: N-terminal fragment containing residues 1–2190 [mPiezo1(1–2190)]; GST (PreScission site) (cleaved yes); made in house; host or cells: HEK293T
The test can be described thus: SPR binding to immobilized purified protein. The note with it: FPLC fraction of trimeric proteins.
Excerpt: Since Jedi1/2 act through the extracellular side of Piezo1, we asked if it might bind to the C-terminal extracellular domain (CED; 2214–2457) that trimerizes to form the extracellular Cap-structure of the central ion-conducting pore module (Fig. 1)[8]. However, none of Jedi1/2, Yoda1, and the control compound bound to the purified CED proteins (without the use of the C12E10 detergent since they are soluble proteins; Fig. 4a–h). We next purified the large N-terminal fragment containing residues 1–2190 [mPiezo1(1–2190)] using the same purification procedure for mPiezo1. […] We used the FPLC fraction corresponding to the trimeric proteins (peak 2 of Supplementary Fig. 2d) for SPR binding assay. […] Given that Jedi1/2 function through the extracellular side, we propose that Jedi1/2 bind to the extracellular loop regions of the blade. The distant location of the Jedi action region relative to the pore indicates a distinct long-distance allosteric gating of Piezo1.
as §1, with “detergent.” for “detergent. During the immobilization process, the CM5 sensor was activated with NHS first, allowing the amine-containing proteins to be coupled to the sensor through NHS.”
as §2

Test [1] has as its target T3, L1342A/L1345A mutant proteins (Mus musculus, UniProt E2JF22, L1342A/L1345A).
T3 construct: The full-length mPiezo1 has 2547 amino acids in each monomer; GST (PreScission site) (cleaved yes); made in house; host or cells: HEK293T
Nature of the test: SPR binding to purified L1342A/L1345A mutant protein. The procedure: Real-time binding and analysis by SPR were conducted on BIAcore T200 instrument (GE Healthcare) at 25 °C. Proteins were immobilized on a research-grade CM5 sensor chip by amine-coupling methods. During the pH scouting process, 10 mM sodium acetate at various pH including 4.0, 4.5, 5.0, and 5.5 and protein concentrations varying between 10 and 100 μg/ml were screened before immobilization. Except pH 4.5 for mPiezo1-(1–2190), pH 5.0 was used for all other proteins, including mPiezo1, CED, Δ15-16, and Δ19-20. All proteins were diluted to 50 μg/ml in buffer containing 10 mM sodium acetate at the abovementioned pH, 0.026% C12E10 detergent, and 150 mM NaCl, except that the soluble CED proteins, which were diluted in 150 mM NaCl without detergent. During the immobilization process, the CM5 sensor was activated with NHS first, allowing the amine-containing proteins to be coupled to the sensor through NHS. Each CM5 sensor had 4 flow cells, and the flow cells 1 and 3 were often left blank as a reference. Diluted Piezo1 wild-type or mutant proteins (50 μg/ml) in their respective buffers were immobilized on the flow cell 2 or flow cell 4 to the similar level as indicated by the “response bound” parameter.
For data collection, compounds at various concentrations were diluted in a running buffer containing 1× PBS, 0.026% detergent C12E10, and 0.05% Surfactant P20 (GE Healthcare Bio-Sciences AB) and injected over the flow cells with at a 30 μl/min flow rate. The proteins and the compounds were allowed to associate for 180 s and then dissociate for 180 s. Data were analyzed with the BIAcore T200 evaluation software by fitting to a 1:1 affinity-binding model.

T3 sequence (E2JF22 whole entry L1342A/L1345A): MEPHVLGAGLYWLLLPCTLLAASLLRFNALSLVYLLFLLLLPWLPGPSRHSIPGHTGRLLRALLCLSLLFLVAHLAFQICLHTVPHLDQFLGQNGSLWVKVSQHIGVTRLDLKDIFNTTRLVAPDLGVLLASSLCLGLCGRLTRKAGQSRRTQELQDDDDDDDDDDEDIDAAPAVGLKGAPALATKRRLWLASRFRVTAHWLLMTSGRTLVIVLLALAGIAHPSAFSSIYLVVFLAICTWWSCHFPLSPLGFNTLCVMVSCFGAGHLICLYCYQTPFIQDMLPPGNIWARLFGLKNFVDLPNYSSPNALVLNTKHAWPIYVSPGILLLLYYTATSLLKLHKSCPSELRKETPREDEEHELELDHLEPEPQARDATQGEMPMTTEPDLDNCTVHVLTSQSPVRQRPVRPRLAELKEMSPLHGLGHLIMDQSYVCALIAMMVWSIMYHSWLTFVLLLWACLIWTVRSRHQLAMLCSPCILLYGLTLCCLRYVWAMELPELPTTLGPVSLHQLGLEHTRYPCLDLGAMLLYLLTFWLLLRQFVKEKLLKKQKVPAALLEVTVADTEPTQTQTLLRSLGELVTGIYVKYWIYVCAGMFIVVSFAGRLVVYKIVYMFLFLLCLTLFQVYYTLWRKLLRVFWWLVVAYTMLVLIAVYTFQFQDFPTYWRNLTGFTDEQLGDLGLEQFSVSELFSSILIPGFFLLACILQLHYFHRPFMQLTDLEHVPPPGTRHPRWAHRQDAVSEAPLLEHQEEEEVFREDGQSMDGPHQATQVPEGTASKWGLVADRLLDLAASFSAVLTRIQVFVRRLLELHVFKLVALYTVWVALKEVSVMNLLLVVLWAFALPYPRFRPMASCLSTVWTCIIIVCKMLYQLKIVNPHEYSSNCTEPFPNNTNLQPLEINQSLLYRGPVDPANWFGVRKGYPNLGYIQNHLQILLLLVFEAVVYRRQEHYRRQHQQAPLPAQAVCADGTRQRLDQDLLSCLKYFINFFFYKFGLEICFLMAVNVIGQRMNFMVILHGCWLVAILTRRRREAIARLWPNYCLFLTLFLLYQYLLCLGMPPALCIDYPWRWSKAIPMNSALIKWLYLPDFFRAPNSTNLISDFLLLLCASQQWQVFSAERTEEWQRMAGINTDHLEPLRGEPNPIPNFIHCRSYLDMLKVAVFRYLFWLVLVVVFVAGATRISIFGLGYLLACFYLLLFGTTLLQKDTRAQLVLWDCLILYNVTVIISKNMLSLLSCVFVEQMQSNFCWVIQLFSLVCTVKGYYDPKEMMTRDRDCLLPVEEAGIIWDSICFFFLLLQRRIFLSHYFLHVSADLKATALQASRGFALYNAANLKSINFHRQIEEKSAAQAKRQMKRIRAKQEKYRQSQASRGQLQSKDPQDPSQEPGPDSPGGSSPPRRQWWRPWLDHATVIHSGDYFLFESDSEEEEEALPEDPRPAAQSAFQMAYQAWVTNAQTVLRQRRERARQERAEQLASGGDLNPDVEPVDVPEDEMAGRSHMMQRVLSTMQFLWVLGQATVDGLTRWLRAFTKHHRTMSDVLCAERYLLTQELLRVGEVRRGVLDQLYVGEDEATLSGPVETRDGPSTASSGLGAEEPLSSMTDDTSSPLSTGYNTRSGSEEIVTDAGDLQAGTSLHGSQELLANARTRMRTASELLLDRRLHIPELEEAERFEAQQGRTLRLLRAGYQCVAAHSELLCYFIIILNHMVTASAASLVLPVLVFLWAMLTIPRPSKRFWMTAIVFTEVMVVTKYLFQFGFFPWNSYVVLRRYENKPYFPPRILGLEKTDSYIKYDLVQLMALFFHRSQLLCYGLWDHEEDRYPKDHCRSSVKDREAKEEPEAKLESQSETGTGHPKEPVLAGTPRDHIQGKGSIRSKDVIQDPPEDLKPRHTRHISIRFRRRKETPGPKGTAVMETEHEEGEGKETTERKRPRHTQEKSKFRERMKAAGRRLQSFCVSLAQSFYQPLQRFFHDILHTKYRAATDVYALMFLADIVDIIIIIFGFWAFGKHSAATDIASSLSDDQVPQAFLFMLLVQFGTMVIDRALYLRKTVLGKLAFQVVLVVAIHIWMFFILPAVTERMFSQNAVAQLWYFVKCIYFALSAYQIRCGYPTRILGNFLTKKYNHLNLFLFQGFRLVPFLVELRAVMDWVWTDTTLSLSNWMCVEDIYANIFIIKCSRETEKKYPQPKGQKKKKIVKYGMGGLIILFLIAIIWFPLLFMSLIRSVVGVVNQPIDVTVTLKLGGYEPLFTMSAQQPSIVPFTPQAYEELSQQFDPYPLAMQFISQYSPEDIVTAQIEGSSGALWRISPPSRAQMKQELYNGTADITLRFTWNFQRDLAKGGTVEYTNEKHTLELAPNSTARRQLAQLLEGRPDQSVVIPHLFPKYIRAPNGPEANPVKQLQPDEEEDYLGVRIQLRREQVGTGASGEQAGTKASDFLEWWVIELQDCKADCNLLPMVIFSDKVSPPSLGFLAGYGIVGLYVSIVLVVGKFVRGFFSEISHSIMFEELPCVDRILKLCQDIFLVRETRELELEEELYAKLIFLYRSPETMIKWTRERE
T2 sequence (E2JF22 1-2190): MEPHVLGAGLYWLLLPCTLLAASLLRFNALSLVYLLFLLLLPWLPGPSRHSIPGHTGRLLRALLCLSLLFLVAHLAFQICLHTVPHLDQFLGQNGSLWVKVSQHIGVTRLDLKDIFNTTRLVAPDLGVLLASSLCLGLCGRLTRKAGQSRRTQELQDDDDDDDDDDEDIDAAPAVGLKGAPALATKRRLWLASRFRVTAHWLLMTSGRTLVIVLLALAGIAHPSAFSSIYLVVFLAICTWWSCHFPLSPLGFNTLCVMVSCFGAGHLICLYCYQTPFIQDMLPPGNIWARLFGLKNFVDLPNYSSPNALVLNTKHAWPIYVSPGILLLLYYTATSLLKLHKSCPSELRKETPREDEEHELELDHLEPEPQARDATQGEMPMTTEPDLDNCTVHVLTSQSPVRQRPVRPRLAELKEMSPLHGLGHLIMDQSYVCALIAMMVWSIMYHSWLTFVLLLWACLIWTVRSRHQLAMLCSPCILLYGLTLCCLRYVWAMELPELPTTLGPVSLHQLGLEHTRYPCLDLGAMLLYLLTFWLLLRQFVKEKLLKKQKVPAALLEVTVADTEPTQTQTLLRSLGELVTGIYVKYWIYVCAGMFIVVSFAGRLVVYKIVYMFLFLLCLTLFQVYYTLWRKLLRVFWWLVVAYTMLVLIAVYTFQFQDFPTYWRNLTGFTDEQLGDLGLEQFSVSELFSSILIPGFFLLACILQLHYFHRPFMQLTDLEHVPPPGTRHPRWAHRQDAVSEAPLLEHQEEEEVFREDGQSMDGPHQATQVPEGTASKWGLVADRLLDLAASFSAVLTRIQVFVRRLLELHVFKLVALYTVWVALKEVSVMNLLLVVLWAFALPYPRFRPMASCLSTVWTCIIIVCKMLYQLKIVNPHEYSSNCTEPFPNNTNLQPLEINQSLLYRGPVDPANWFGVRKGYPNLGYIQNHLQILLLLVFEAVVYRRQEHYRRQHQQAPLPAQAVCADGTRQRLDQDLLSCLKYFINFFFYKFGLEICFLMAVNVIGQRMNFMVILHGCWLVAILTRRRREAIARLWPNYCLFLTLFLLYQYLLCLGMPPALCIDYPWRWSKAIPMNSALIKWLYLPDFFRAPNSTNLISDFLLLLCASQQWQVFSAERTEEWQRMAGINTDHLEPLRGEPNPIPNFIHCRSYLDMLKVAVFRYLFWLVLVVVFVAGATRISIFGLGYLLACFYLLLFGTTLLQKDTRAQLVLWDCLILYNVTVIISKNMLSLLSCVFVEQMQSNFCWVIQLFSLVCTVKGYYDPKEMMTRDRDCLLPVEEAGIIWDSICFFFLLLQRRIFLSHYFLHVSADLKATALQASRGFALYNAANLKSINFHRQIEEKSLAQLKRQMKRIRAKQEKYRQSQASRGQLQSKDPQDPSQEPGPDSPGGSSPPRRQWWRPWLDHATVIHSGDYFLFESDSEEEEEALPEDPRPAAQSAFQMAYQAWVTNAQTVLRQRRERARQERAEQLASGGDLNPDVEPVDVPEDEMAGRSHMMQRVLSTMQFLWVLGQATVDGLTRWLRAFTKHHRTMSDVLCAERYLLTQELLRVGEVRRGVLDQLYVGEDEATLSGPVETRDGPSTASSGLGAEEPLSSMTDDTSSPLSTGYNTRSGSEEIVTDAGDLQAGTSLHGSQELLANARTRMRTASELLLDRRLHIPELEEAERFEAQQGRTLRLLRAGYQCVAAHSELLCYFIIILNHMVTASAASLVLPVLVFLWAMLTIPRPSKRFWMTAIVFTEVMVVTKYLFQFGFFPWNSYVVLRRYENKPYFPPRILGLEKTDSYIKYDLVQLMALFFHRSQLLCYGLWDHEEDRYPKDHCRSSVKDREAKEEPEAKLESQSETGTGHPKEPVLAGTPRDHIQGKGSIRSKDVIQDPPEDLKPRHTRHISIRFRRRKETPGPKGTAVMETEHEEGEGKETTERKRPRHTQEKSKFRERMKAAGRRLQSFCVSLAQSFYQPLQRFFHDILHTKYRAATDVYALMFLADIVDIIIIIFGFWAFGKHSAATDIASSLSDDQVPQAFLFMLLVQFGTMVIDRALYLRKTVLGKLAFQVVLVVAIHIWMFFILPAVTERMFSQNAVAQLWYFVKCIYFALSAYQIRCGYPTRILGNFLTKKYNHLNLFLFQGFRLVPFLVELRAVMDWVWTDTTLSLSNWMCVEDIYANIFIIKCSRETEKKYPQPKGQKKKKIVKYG
T1 sequence (E2JF22 whole entry): as the sequence (E2JF22 whole entry L1342A/L1345A) above, with A1342L, A1345L counted along it

As for `Clc1cccc(Cl)c1CSc1nnc(-c2cnccn2)s1` [Yoda1, reference compound], on mPiezo1, the equilibrium dissociation constant (Kd) amounted to 0.0456 ± 0.0143 mM. Moreover, on mPiezo1(1–2190), the “binding to mPiezo1(1–2190) proteins (SPR)” value was “virtually identical fashion as to mPiezo1”. In test [1], the “binding to purified L1342A/L1345A mutant proteins (SPR)” value is “retained the ability to bind”.

Consider `Cc1oc(-c2cccs2)cc1C(=O)O` [Jedi2], for which binding at mPiezo1 was put at a Kd of 2.77 ± 0.178 mM. On mPiezo1(1–2190), the “binding to mPiezo1(1–2190) proteins (SPR)” value was “virtually identical fashion as to mPiezo1”. In addition, the “binding to purified L1342A/L1345A mutant proteins (SPR)” value in test [1] was “retained the ability to bind”.

On mPiezo1, `Cc1oc(-c2ccccc2)cc1C(=O)O` [Jedi1] returned an equilibrium dissociation constant (Kd) of 2.75 ± 0.425 mM. The “binding to mPiezo1(1–2190) proteins (SPR)” value on mPiezo1(1–2190) is “virtually identical fashion as to mPiezo1”. The “binding to purified L1342A/L1345A mutant proteins (SPR)” value in test [1] is “retained the ability to bind”.
